Experimental data: article PMC10602061 (Research Square, 2023)
Ends that are not written are not given here.

What was measured:
4T1 cells [1] = assay: Fluorescence live cell imaging, calcein-AM stained cytosol; format: cell-based, murine; conditions: 100 μM CKS1, live cell imaging
Protocol: (§1) Fluorescence labeling of cells was performed by seeding 5.0 × 10^4 4T1 cells in a 35mm dish on a collagen-coated No. 1.5 coverslip with a 14 mm glass diameter (MatTek, Ashland, MA). After overnight incubation, the cells were washed once with serum free media and replaced with fresh serum free media. For cell membrane labeling, NR12S (R&D Systems, Minneapolis, MN, #7509) was added at a final concentration of 0.3 μM and incubated for 30 minutes. For cell cytosol labeling, Calcein-AM (Thermo Fisher Scientific, C1430) was added at a final concentration of 5 μg/mL and incubated for 10 minutes. For mitochondrial membrane labeling, JC-1 (Thermo Fisher Scientific, T3168) was added at a final concentration of 10 μg/mL and incubated for 10 minutes. For nuclear staining, Hoechst 33342 (Cell Signaling Technology, #4082) was added at a final concentration of 5 μg/mL and incubated for 10 minutes.
(§2) Cells were imaged on either a Zeiss LSM 700 or a 3i spinning disk confocal microscope. Samples were imaged with optimized microscope settings. Z-stack, time-lapse, or multi-channel acquisition settings were adjusted based on the experimental requirements. Images were then acquired with the appropriate excitation and emission wavelengths for each fluorophore.
(§3) Image analysis was performed using Fiji software. For each image/video, the brightness and the contrast were adjusted. […]

[2] = test system: human umbilical vein endothelial cells (HUVECs); assay: LDH release (CyQUANT LDH cytotoxicity assay); format: cell-based; conditions: indicated concentration of CKS1, 6 hours, N = 3
Protocol: (§5) 1.0 × 10^4 cells were seeded in a 96-well plate and incubated overnight. The cells were washed once, and the medium was replaced with serum free media. Cells were treated with CKS1 for the indicated time and concentration. CyQUANT LDH cytotoxicity assay (Thermo Fisher Scientific) was used following the manufacturer’s instructions to measure the release of LDH. LDH release was normalized to the amount of LDH released from cells treated with lysis buffer.

4T1 cells [3] = assay: JC-1 mitochondrial membrane potential imaging; format: cell-based, murine; conditions: 100 μM CKS1, live cell imaging, 25 cells, representative of N = 3
Protocol: as §1, §2, §3

4T1 cells [4] = assay: xCELLigence real-time cell viability assay (RTCA); format: cell-based, murine; conditions: serum free media, representative of N = 3
Protocol: 3,000 cells were seeded in the wells of an xCELLigence RTCA E-plate 16 (Agilent, Santa Clara, CA). After the cells adhered to the plate, the media was replaced with serum free media, and the cells were treated with CKS1 at the indicated concentrations. The viability of the cells was monitored using the xCELLigence RTCA analyzer (Agilent).

glioma = glioma model; cited from earlier work
Source text: (§4) Chemokinostatin-1 (CKS1) is a 24-mer peptide originally discovered as an anti-angiogenic peptide. Karagiannis and Popel developed a computational method to identify anti-angiogenic sequences contained in the human proteome and discovered common sequences conserved within protein domains contained in angiogenesis-related proteins. CKS1 is derived from a sequence shared in the CXC chemokine family.

[5] = test system: triple-negative breast cancer (TNBC); conditions: triple-negative breast cancer (TNBC) model; cited from earlier work
Source text: as §4

4T1 cells [6] = assay: Transmission electron microscopy of cell morphology; format: cell-based, murine; conditions: 100 μM CKS1, 30 minutes
Protocol: Samples were fixed in 2.5% glutaraldehyde, 3 mM MgCl2 in 0.1 M sodium cacodylate buffer, pH 7.2 overnight at 4°C. After buffer rinse, samples were postfixed in 2% osmium tetroxide in 0.1 M sodium cacodylate for at least one hour (no more than two) on ice in the dark. After osmium, samples were rinsed in 0.1 M Maleate buffer (pH 6.2), followed by uranyl acetate in 0.1 M Maleate (0.22 μm filtered, 1 h, dark), dehydrated in a graded series of ethanol and embedded in Epon (PolySci) resin. Samples were polymerized at 60°C overnight. Thin sections, 60 to 90 nm, were cut with a diamond knife on a Leica UCT ultramicrotome and picked up with 2×1 mm Formvar copper slot grids. Grids were stained with 2% uranyl acetate (aq.) followed by lead citrate and observed with a Hitachi 7600 TEM at 80 kV. Images were captured with an AMT CCD XR80 (8-megapixel camera - side mount AMT XR80 – high-resolution highspeed camera).

[7] = test system: NIH/3T3 normal fibroblasts; assay: LDH release (CyQUANT LDH cytotoxicity assay); format: cell-based, murine; conditions: NIH/3T3 fibroblasts, indicated concentration of CKS1, 6 hours; N = 3
Protocol: as §5

caspase-3 in 4T1 cells = assay: Caspase-3 activity assay in cell lysate; format: cell-based, murine; conditions: 100 μM CKS1, indicated time, fluorescence divided by protein concentration, N = 3
Protocol: 1.0 × 10^4 4T1 cells were seeded in 96-well plates and incubated overnight. After CKS1 treatment, the cells were lysed using lysis buffer (Cell Signaling Technology, #7018). The activity of caspase-3 in the cell lysate was quantified using the caspase-3 activity assay kit (Cell Signaling Technology, #5723) following the manufacturer’s instructions. Briefly, the cell lysate was incubated with a substrate of caspase-3 which was designed to emit fluorescence when cleaved. After incubation, the fluorescence was measured using a plate reader. The protein concentration of the cell lysate was quantified using the DC protein assay kit (Bio-Rad, Hercules, CA). The caspase-3 activity was divided by the protein concentration to obtain the caspase-3 activity per μg/mL protein in the cell lysate.

Substance: NGRKACLNPASPIVKKIIEKMLNS-NH2 [CKS1, Chemokinostatin-1]
- Events after treatment in calcein-AM stained cells (4T1 cells [1]): influx of the surrounding media into the cells
- Cell death (release of LDH) in non-cancerous cells [2]: did not induce cell death
- Mitochondrial membrane potential (JC-1 green/red fluorescence) (4T1 cells [3]): rapidly diminishes the mitochondrial membrane potential
- Time after treatment at which cell death (reduction in cell index) was observed (4T1 cells [4]; 4T1 cells, 3,000 cells per well): ≤ 1 h
- Dose dependence of cell death (reduction in cell index) (4T1 cells [4]; 4T1 cells): dose-dependent
- Suppression of tumor growth (glioma): efficacy in suppressing tumor growth was demonstrated
- Suppression of tumor growth [5]: efficacy in suppressing tumor growth was demonstrated
- Cell membrane integrity by electron microscopy (4T1 cells [6]): ruptured
- Nuclear membrane integrity by electron microscopy (4T1 cells [6]): not ruptured
- Cell death (release of LDH) in non-cancerous cells [7]: did not induce cell death
- Activity of caspase-3 (caspase-3 in 4T1 cells): increased
